The source made the active and inactive calls.
Experiments:
Assay type in all cases: cell-based
Cyclin-T1 [1] = molecular target: T1, Cyclin-T1 (Homo sapiens, UniProt O60563); test: Induction of HA-tagged Cyclin T1 (unknown origin) polyubiquitination expressed in HEK293T cells co-transfected with Flag-tagged CDK9 and Myc ubiquitin assessed as increase in K48-linkage poly-ubiqutinated Cyclin T1 level at 1 to 2 uM incubated for 20 hrs by western blot analysis; details: dose 1-2 µM
Cyclin-T1 [2] = molecular target: T1, Cyclin-T1; test: Induction of HyT-mediated degradation of Cyclin T1 in human 22Rv1 cells assessed as reduction in Cyclin T1 protein level at 3 uM measured after 24 to 48 hrs by immunoblot analysis; details: time 24-48 hrs
[3] = molecular target: T2, CDK9/cyclin T1 (Homo sapiens) (UniProt O60563+P50750); test: Induction of CDK9/Cyclin T1 degradation in human 22Rv1 cells assessed as downregulation of CDC6 gene expression at 2 uM incubated for 24 hrs by RNA-Seq based analysis
[4] = molecular target: T2, CDK9/cyclin T1 (Homo sapiens); test: Induction of CDK9/Cyclin T1 degradation in human 22Rv1 cells assessed as downregulation of IKBKE gene expression at 2 uM incubated for 24 hrs by RNA-Seq based analysis
[5] = molecular target: T2, CDK9/cyclin T1 (Homo sapiens); test: Induction of CDK9/Cyclin T1 degradation in human 22Rv1 cells assessed as downregulation of TP53 gene expression at 2 uM incubated for 24 hrs by RNA-Seq based analysis
[6] = molecular target: T2, CDK9/cyclin T1 (Homo sapiens); test: Induction of CDK9/Cyclin T1 degradation in human 22Rv1 cells assessed as downregulation of AR-V7 splice variant protein expression at 2 uM measured after 24 hrs by immunoblot analysis

Measured: Activity

T1 sequence (O60563 whole entry): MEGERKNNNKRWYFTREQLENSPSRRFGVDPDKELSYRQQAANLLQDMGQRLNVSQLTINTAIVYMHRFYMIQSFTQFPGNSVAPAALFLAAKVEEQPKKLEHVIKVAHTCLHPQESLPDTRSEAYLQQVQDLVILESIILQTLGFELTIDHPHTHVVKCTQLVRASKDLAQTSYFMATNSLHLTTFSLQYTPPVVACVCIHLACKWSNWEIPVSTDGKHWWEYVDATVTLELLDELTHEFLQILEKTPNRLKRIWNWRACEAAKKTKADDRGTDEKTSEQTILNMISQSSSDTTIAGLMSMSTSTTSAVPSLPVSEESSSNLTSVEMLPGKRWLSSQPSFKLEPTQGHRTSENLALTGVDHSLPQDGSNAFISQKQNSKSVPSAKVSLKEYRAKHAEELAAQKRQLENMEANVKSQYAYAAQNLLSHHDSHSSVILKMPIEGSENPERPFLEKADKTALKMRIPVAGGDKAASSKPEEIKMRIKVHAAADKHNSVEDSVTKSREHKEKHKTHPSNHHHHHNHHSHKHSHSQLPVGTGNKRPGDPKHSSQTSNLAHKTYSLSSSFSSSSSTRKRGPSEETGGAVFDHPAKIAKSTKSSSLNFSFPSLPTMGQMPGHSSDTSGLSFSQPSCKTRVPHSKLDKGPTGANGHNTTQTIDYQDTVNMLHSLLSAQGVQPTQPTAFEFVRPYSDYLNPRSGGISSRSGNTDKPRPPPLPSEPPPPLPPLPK

CC(C)[C@@H]1CC[C@@H](C)C[C@H]1OCC(=O)NCCS(=O)(=O)N1CCC(C(=O)Nc2ncc(SCc3ncc(C(C)(C)C)o3)s2)CC1
active: all assays above

Reference: ChEMBL document CHEMBL5113511, “Discovery of Small-Molecule Degraders of the CDK9-Cyclin T1 Complex for Targeting Transcriptional Addiction in Prostate Cancer” (J Med Chem, 2022)
